Source: US12673945B2, “3-((8-((1H-pyrazol-4-yl)amino)imidazo[1,2-a]pyridin-3-yl)ethinyl)-n-phenylbenzamide derivative, method for preparing same, and pharmaceutical composition containing same as active ingredient for prevention or treatment of cancer” (DAEGU-GYEONGBUK MEDICAL INNOVATION FOUNDATION, priority 2020, dated 2026)

Columns and labels:
Experiment in all cases: scanMAX Kinase panel (DiscoverX)
Format in all cases: binding
[1] = target: T1, ABL1(F317L)-nonphosphorylated (Homo sapiens, UniProt P00519, F317L); conditions: read-out: % Cont @ 1 uM
T1 construct: purchased DiscoverX
Method: (§1) Among the example compounds of the present invention, the enzyme (kinase) selectivity of the selected compounds of Examples 1 and 4 was measured by requesting DiscoverX. At this time, the experiment was performed using a panel for scanMAX™ Kinase. The concentration of the drug treated to the enzyme was 1 μM in DMSO, and the percentage control (% control) was determined by the method shown in Equation 1 below. (Example Compound−Positive Control)/(Negative Control−Positive control)×100 [Equation 1]

[2] = target: T2, ABL1(H396P)-nonphosphorylated (Homo sapiens, UniProt P00519, H396P); conditions: read-out: % Cont @ 1 uM
T2 construct: purchased DiscoverX
Method: as §1

AXL = target: T3, AXL (Homo sapiens, UniProt P30530); conditions: read-out: % Cont @ 1 uM
T3 construct: purchased DiscoverX scanMAX Kinase panel
Method: as §1

CDK11 = target: T4, CDK11 (Homo sapiens, UniProt Q9BWU1)
T4 construct: purchased DiscoverX scanMAX Kinase panel
Method: as §1

CDK7 = target: T5, CDK7 (Homo sapiens, UniProt P50613); conditions: read-out: % Cont @ 1 uM
T5 construct: purchased DiscoverX scanMAX Kinase panel
Method: as §1

CDKL2 = target: T6, CDKL2 (Homo sapiens, UniProt Q92772); conditions: read-out: % Cont @ 1 uM
T6 construct: purchased DiscoverX scanMAX Kinase panel
Method: as §1

DDR1 = target: T7, DDR1 (Homo sapiens, UniProt Q08345); conditions: read-out: % Cont @ 1 uM
T7 construct: purchased DiscoverX scanMAX Kinase panel
Method: as §1

EGFR(E746-A750del) = target: T8, EGFR(E746-A750del) (Homo sapiens, UniProt P00533, DEL746-750)
T8 construct: purchased DiscoverX scanMAX Kinase panel
Method: as §1

EPHA1 = target: T9, EPHA1 (Homo sapiens, UniProt P21709); conditions: read-out: % Cont @ 1 uM
T9 construct: purchased DiscoverX scanMAX Kinase panel
Method: as §1

EPHA5 = target: T10, EPHA5 (Homo sapiens, UniProt P54756)
T10 construct: purchased DiscoverX scanMAX Kinase panel
Method: as §1

EPHA8 = target: T11, EPHA8 (Homo sapiens, UniProt P29322); conditions: read-out: % Cont @ 1 uM
T11 construct: purchased DiscoverX scanMAX Kinase panel
Method: as §1

ERBB4 = target: T12, ERBB4 (Homo sapiens, UniProt Q15303); conditions: read-out: % Cont @ 1 uM
T12 construct: purchased DiscoverX scanMAX Kinase panel
Method: as §1

ERK8 = target: T13, ERK8 (Homo sapiens, UniProt Q8TD08); conditions: read-out: % Cont @ 1 uM
T13 construct: purchased DiscoverX scanMAX Kinase panel
Method: as §1

FGFR1 = target: T14, FGFR1 (Homo sapiens, UniProt P11362); conditions: read-out: % Cont @ 1 uM
T14 construct: purchased DiscoverX scanMAX Kinase panel
Method: as §1

FGFR3(G697C) = target: T15, FGFR3(G697C) (Homo sapiens, UniProt P22607, G697C); conditions: read-out: % Cont @ 1 uM
T15 construct: purchased DiscoverX scanMAX Kinase panel
Method: as §1

FLT3 = target: T16, FLT3 (Homo sapiens, UniProt P36888); conditions: read-out: % Cont @ 1 uM
T16 construct: purchased DiscoverX scanMAX Kinase panel
Method: as §1

FLT3(N841I) = target: T17, FLT3(N841I) (Homo sapiens, UniProt P36888, N841I); conditions: read-out: % Cont @ 1 uM
T17 construct: purchased DiscoverX scanMAX Kinase panel
Method: as §1

FYN = target: T18, FYN (Homo sapiens, UniProt P06241); conditions: read-out: % Cont @ 1 uM
T18 construct: purchased DiscoverX scanMAX Kinase panel
Method: as §1

GAK = target: T19, GAK (Homo sapiens, UniProt O14976); conditions: read-out: % Cont @ 1 uM
T19 construct: purchased DiscoverX scanMAX Kinase panel
Method: as §1

GCN2(Kin.Dom.2, S808G) = target: T20, GCN2(Kin.Dom.2, S808G) (Homo sapiens, UniProt Q9P2K8, S808G); conditions: read-out: % Cont @ 1 uM
T20 construct: GCN2(Kin.Dom.2,S808G); purchased DiscoverX scanMAX Kinase panel
Method: as §1

HCK = target: T21, HCK (Homo sapiens, UniProt P08631); conditions: read-out: % Cont @ 1 uM
T21 construct: purchased DiscoverX scanMAX Kinase panel
Method: as §1

KIT = target: T22, KIT (Homo sapiens, UniProt P10721); conditions: read-out: % Cont @ 1 uM
T22 construct: purchased DiscoverX scanMAX Kinase panel
Method: as §1

KIT(L576P) = target: T23, KIT(L576P) (Homo sapiens, UniProt P10721, L576P); conditions: read-out: % Cont @ 1 uM
T23 construct: purchased DiscoverX scanMAX Kinase panel
Method: as §1

KIT(V559D) = target: T24, KIT(V559D) (Homo sapiens, UniProt P10721, V559D); conditions: read-out: % Cont @ 1 uM
T24 construct: purchased DiscoverX scanMAX Kinase panel
Method: as §1

MAP4K2 = target: T25, MAP4K2 (Homo sapiens, UniProt Q12851); conditions: read-out: % Cont @ 1 uM
T25 construct: purchased DiscoverX scanMAX Kinase panel
Method: as §1

MAP4K5 = target: T26, MAP4K5 (Homo sapiens, UniProt Q9Y4K4); conditions: read-out: % Cont @ 1 uM
T26 construct: purchased DiscoverX scanMAX Kinase panel
Method: as §1

MKNK2 = target: T27, MKNK2 (Homo sapiens, UniProt Q9HBH9); conditions: read-out: % Cont @ 1 uM
T27 construct: purchased DiscoverX scanMAX Kinase panel
Method: as §1

MLK1 = target: T28, MLK1 (Homo sapiens, UniProt P80192); conditions: read-out: % Cont @ 1 uM
T28 construct: purchased DiscoverX scanMAX Kinase panel
Method: as §1

NLK = target: T29, NLK (Homo sapiens, UniProt Q9UBE8); conditions: read-out: % Cont @ 1 uM
T29 construct: purchased DiscoverX scanMAX Kinase panel
Method: as §1

PCTK2 = target: T30, PCTK2 (Homo sapiens, UniProt Q00537); conditions: read-out: % Cont @ 1 uM
T30 construct: purchased DiscoverX scanMAX Kinase panel
Method: as §1

PDGFRB = target: T31, PDGFRB (Homo sapiens, UniProt P09619); conditions: read-out: % Cont @ 1 uM
T31 construct: purchased DiscoverX scanMAX Kinase panel
Method: as §1

SLK = target: T32, SLK (Homo sapiens, UniProt Q9H2G2); conditions: read-out: % Cont @ 1 uM
T32 construct: purchased DiscoverX scanMAX Kinase panel
Method: as §1

SRMS = target: T33, SRMS (Homo sapiens, UniProt Q9H3Y6); conditions: read-out: % Cont @ 1 uM
T33 construct: purchased DiscoverX scanMAX Kinase panel
Method: as §1

TIE1 = target: T34, TIE1 (Homo sapiens, UniProt P35590); conditions: read-out: % Cont @ 1 uM
T34 construct: purchased DiscoverX scanMAX Kinase panel
Method: as §1

TNK1 = target: T35, TNK1 (Homo sapiens, UniProt Q13470); conditions: read-out: % Cont @ 1 uM
T35 construct: purchased DiscoverX scanMAX Kinase panel
Method: as §1

TNNI3K = target: T36, TNNI3K (Homo sapiens, UniProt Q59H18); conditions: read-out: % Cont @ 1 uM
T36 construct: purchased DiscoverX scanMAX Kinase panel
Method: as §1

TXK = target: T37, TXK (Homo sapiens, UniProt P42681); conditions: read-out: % Cont @ 1 uM
T37 construct: purchased DiscoverX scanMAX Kinase panel
Method: as §1

[3] = target: T38, TYK2(JH1domain-catalytic) (Homo sapiens, UniProt P29597)
T38 construct: TYK2(JH1domain-catalytic); purchased DiscoverX scanMAX Kinase panel
Method: as §1

T22 sequence (P10721 26-976): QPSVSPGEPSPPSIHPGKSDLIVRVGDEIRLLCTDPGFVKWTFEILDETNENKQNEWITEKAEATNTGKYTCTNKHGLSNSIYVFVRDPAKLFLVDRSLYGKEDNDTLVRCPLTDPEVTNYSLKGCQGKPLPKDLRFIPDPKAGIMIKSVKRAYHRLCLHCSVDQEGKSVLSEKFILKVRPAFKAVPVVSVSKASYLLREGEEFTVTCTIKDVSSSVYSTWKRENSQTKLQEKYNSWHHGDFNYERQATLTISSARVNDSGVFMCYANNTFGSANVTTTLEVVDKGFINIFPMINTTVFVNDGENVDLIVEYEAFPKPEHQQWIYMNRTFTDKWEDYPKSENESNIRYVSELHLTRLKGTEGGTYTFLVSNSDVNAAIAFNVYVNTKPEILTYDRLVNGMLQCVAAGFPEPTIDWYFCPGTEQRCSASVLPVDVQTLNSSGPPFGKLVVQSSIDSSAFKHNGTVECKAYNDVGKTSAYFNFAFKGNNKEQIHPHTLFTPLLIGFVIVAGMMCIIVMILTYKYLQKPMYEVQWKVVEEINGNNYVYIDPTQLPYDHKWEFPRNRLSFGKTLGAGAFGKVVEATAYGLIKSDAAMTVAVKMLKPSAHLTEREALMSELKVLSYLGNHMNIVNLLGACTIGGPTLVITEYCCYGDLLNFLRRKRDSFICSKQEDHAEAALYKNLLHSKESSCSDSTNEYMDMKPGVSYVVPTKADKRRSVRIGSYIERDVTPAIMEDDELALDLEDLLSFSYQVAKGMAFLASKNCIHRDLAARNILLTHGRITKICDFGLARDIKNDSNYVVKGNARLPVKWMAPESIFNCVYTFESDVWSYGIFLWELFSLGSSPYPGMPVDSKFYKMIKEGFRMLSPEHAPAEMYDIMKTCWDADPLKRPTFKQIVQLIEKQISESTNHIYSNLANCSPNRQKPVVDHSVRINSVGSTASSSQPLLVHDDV
T26 sequence (Q9Y4K4 whole entry): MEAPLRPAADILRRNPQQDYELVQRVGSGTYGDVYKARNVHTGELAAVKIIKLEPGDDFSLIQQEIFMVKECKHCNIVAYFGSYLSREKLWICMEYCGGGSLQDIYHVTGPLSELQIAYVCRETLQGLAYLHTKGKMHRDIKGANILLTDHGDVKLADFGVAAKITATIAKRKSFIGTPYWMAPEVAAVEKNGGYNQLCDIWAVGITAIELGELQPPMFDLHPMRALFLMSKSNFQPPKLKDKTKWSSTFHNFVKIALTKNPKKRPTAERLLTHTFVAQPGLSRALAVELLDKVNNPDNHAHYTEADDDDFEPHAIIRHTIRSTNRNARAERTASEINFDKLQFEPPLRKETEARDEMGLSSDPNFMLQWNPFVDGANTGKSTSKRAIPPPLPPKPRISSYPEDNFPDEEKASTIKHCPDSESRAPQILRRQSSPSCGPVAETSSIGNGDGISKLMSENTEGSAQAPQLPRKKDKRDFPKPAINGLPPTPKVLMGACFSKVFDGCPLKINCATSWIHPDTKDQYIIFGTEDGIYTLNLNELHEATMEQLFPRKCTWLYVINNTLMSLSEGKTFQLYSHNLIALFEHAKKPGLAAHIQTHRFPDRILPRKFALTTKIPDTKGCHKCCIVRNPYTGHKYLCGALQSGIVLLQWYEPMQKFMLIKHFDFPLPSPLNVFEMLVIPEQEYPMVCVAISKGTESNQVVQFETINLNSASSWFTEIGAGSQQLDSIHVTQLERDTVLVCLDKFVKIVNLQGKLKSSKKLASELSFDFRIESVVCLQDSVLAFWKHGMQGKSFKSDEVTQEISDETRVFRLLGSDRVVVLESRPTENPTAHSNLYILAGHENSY
T37 sequence (P42681 whole entry): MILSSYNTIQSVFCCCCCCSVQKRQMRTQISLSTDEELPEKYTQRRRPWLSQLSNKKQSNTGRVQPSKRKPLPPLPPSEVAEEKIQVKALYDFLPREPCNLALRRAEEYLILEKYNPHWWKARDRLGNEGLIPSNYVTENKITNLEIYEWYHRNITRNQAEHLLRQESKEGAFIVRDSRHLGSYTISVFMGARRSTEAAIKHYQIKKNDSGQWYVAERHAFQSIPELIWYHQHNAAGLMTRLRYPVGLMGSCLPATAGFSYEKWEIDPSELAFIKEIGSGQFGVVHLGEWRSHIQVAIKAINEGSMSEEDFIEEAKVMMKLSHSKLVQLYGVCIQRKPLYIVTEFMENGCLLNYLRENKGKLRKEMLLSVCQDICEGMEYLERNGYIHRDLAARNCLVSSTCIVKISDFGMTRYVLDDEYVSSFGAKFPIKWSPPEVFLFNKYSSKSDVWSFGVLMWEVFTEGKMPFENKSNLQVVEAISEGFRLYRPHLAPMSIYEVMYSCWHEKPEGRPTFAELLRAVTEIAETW
T4 sequence (Q9BWU1 whole entry): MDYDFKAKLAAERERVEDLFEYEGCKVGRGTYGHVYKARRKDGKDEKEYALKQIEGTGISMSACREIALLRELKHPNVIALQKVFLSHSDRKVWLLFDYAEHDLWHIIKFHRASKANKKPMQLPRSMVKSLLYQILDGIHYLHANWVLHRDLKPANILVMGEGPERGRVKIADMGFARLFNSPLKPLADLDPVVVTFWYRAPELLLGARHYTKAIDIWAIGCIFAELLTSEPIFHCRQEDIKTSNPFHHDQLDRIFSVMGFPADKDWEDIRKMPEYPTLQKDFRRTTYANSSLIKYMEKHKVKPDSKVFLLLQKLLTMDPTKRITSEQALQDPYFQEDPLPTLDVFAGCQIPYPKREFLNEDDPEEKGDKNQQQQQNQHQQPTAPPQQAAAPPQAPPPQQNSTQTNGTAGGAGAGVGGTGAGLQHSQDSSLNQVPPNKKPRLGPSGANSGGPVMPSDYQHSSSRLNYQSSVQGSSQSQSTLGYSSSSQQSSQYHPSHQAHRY
T20 sequence (Q9P2K8 590-1001 S808G limits assumed): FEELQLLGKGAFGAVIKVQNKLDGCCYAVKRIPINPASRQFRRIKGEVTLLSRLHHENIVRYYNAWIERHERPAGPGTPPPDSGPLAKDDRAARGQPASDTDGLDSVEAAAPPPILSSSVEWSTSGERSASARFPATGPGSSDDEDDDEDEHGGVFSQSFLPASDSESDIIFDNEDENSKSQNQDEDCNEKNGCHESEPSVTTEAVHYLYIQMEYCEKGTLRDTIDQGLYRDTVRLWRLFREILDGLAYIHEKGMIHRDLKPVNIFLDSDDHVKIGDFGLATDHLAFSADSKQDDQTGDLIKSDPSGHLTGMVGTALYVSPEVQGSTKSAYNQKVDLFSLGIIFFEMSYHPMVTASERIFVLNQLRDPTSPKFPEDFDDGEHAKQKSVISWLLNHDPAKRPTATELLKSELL
T7 sequence (Q08345 19-913): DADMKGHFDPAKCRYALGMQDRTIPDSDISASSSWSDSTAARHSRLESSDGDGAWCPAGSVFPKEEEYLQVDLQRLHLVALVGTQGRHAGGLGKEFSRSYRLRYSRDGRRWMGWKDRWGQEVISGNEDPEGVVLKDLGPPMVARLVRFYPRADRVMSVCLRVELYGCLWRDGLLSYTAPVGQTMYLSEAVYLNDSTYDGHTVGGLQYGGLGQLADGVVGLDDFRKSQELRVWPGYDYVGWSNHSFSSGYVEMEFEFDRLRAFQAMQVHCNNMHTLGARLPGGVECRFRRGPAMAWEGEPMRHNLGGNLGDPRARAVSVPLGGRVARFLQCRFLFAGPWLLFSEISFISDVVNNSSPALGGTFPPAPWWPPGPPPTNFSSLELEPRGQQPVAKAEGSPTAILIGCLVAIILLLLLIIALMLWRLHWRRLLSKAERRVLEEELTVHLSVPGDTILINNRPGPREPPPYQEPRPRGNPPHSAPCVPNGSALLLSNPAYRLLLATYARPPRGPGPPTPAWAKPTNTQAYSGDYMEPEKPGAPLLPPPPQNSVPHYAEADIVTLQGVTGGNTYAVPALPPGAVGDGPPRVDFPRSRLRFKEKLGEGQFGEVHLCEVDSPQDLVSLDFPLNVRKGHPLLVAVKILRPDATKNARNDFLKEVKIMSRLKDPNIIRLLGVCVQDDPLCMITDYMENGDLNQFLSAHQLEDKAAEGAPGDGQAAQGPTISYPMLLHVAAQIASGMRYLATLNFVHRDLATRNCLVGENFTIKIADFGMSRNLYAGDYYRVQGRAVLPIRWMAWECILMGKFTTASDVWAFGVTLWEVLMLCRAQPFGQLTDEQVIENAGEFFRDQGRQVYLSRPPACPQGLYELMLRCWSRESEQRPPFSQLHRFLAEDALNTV
T3 sequence (P30530 26-894): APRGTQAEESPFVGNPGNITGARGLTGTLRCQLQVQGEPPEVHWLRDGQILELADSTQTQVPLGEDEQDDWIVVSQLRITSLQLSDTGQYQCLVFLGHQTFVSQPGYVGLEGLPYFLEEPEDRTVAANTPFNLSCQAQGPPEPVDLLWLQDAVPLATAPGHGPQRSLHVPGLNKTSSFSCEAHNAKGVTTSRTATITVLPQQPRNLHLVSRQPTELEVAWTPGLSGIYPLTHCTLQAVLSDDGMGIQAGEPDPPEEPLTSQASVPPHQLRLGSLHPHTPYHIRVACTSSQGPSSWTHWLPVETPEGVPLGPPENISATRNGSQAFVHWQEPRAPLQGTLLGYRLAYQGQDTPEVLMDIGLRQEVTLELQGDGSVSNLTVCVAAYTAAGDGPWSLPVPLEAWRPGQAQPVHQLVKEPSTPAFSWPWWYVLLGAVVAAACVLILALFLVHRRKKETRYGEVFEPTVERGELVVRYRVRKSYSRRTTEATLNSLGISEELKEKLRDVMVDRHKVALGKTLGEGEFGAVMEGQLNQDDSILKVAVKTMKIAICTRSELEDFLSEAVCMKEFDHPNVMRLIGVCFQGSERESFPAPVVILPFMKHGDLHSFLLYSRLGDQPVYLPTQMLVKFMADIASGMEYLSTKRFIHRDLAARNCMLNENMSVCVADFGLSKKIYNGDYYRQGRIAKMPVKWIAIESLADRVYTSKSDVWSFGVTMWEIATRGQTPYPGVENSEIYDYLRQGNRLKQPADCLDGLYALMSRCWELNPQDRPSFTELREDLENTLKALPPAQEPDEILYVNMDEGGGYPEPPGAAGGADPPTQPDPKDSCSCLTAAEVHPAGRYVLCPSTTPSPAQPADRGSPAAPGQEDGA
T23 sequence (P10721 26-976 L576P): as the sequence (P10721 26-976) above, with L551P counted along it

SMILES | remaining binding at 1 µM [1] [%] | remaining binding at 1 µM [2] [%] | remaining binding at 1 µM (AXL) [%] | % Cont @ 1 uM (CDK11) [%] | remaining binding at 1 µM (CDK7) [%] | remaining binding at 1 µM (CDKL2) [%] | remaining binding at 1 µM (DDR1) [%] | % Cont @ 1 uM (EGFR(E746-A750del)) [%] | remaining binding at 1 µM (EPHA1) [%] | % Cont @ 1 uM (EPHA5) [%] | remaining binding at 1 µM (EPHA8) [%] | remaining binding at 1 µM (ERBB4) [%] | remaining binding at 1 µM (ERK8) [%] | remaining binding at 1 µM (FGFR1) [%] | remaining binding at 1 µM (FGFR3(G697C)) [%] | remaining binding at 1 µM (FLT3) [%] | remaining binding at 1 µM (FLT3(N841I)) [%] | remaining binding at 1 µM (FYN) [%] | remaining binding at 1 µM (GAK) [%] | remaining binding at 1 µM (GCN2(Kin.Dom.2, S808G)) [%] | also measured
Cc1cn(-c2cc(NC(=O)c3cc(C#Cc4cnc5c(Nc6cnn(C)c6)cccn45)c(C)cc3F)cc(C(C)(C)C#N)c2)cn1 [Example 1, N-(3-(2-cyanopropane-2-yl)-5-(4-methyl-1H-imidazol-1-yl)phenyl)-2-fluoro-4-methyl-5-((8-((1-methyl-1H-pyrazol-4-yl)amino)imidazo[1,2-a]pyridin-3-yl)ethynyl)benzamide] | 2.7 | 1.2 | 14.4 | 14.8 | 4.7 | 0.7 | 0.15 | 0 | 4.1 | 8.9 | 0.1 | 18 | 19 | 1.2 | 7.5 | 2 | 0 | 3 | 25 | 17 | remaining binding at 1 µM (HCK): 0.2%; percent of control binding at 1 µM (KIT): 0%; remaining binding at 1 µM (KIT(L576P)): 1.4%; remaining binding at 1 µM (KIT(V559D)): 0%; remaining binding at 1 µM (MAP4K2): 2.5%; remaining binding at 1 µM (MAP4K5): 0.95%; remaining binding at 1 µM (MKNK2): 0.7%; percent of control binding at 1 µM (MLK1): 18%; remaining binding at 1 µM (NLK): 0%; remaining binding at 1 µM (PCTK2): 23%; remaining binding at 1 µM (PDGFRB): 0%; remaining binding at 1 µM (SLK): 1.2%; remaining binding at 1 µM (SRMS): 1.2%; remaining binding at 1 µM (TIE1): 3.5%; remaining binding at 1 µM (TNK1): 30%; remaining binding at 1 µM (TNNI3K): 1.8%; remaining binding at 1 µM (TXK): 1.6%; % Cont @ 1 uM [3]: 33%
Cc1cn(-c2cc(NC(=O)c3cc(C#Cc4cnc5c(Nc6cnn(C)c6)cccn45)c(C)cc3F)cc(C(F)(F)F)c2)cn1 [Example 4, 2-fluoro-4-methyl-N-(3-(4-methyl-1H-imidazol-1-yl)-5-(trifluoromethyl)phenyl)-5-((8-((1-methyl-1H-pyrazol-4-yl)amino)imidazo[1,2-a]pyridin-3-yl)ethynyl)benzamide] | 10 | 2.9 | 1.4 | 55 | 71 | 14 | 0 | 56 | 37 | 26 | 1.6 | 46 | 90 | 27 | 90 | 1.9 | 0 | 32 | 80 | 64 | remaining binding at 1 µM (HCK): 0.65%; percent of control binding at 1 µM (KIT): 1.6%; remaining binding at 1 µM (KIT(L576P)): 2.8%; remaining binding at 1 µM (KIT(V559D)): 0.25%; remaining binding at 1 µM (MAP4K2): 70%; remaining binding at 1 µM (MAP4K5): 38%; remaining binding at 1 µM (MKNK2): 96%; percent of control binding at 1 µM (MLK1): 76%; remaining binding at 1 µM (NLK): 14%; remaining binding at 1 µM (PCTK2): 85%; remaining binding at 1 µM (PDGFRB): 0.05%; remaining binding at 1 µM (SLK): 34%; remaining binding at 1 µM (SRMS): 54%; remaining binding at 1 µM (TIE1): 4.1%; remaining binding at 1 µM (TNK1): 31%; remaining binding at 1 µM (TNNI3K): 41%; remaining binding at 1 µM (TXK): 11%; % Cont @ 1 uM [3]: 72%
